Assay [1] has as its target recombinant human SGK-1 enzyme (Homo sapiens, UniProt O00141). Nature of the assay: Enzymatic activity assay: SGK-1 substrate peptide phosphorylation (Caliper lab-chip mobility shift). In kind it is biochemical.
The subject of assay [2] is SGK-1 dependent phosphorylation of GSK3beta in U2OS cells. As to the kind of experiment: SGK-1 dependent phosphorylation of GSK3beta in U2OS cells overexpressing recombinant SGK-1 and GSK3beta. The class given is cell-based, human. The settings on record: U2OS cells, 6 h incubation, ratio of phosphorylated GSK3beta to total GSK3beta, read-out: IC50 values for inhibition of SGK-1 dependent phosphorylation of GSK3beta in U2OS cells. On the procedure:
B) Determination of the Effect on SGK-1 Dependent Phosphorylation of GSK3beta in U2OS Cells
U2OS cells were cultured in 1:1 Dulbecco modified Eagle medium/Ham's F12 and 10% heat-inactivated fetal calf serum (FCS Gold) at 37° C., 7% CO2 and 95% relative humidity. […] Cell suspension mixed with BacMam viruses was seeded in 96 well pCLEAR plates (Greiner) at 3×10^4 cells per well in 250 μl medium. […] 1 μl of a solution of the test compound at 250×final concentration was added. Cells are incubated at 37° C., 7% CO2 and 95% relative humidity. […] After removing the fixation solution, cells were permeabilised by adding 200 μl PBT (0.2% Triton X-100 in PBS) per well for 5 min. After removing PBT, cells were blocked by adding 200 μl of blocking solution (1% bovine serum albumine in PBS) per well. Blocking solution was removed and 50 μl of primary antibody (rabbit anti-phospho-GSK-3beta (Ser9), and mouse anti-GSK-3beta) were added for 1 h. […] After washing the cells 3 times with PBS, 200 μl of PBS were added. Fluorescence signals were measured with the ImageXpress MICRO (Molecular Devices).

Where [3] appears, read: peptide substrate 1 μM, ATP 10 μM, 60 min at 37° C., read-out: IC50 values for inhibition of SGK-1 enzymatic activity.
[4] abbreviates: read-out: IC50 values for inhibition of SGK-1 enzymatic activity, peptide substrate 1 μM, ATP 10 μM, 60 min at 37° C.

Molecules are shown by their SMILES. Like-named read-outs stand apart in the source and are kept apart here.

Drawing on US9718825B2, “N-(4-(azaindazol-6-yl)-phenyl)-sulfonamides and their use as pharmaceuticals” (priority 2013, dated 2017), this text covers IC50 for 45 molecules.

Sequence of recombinant human SGK-1 enzyme (O00141 whole entry, looked up): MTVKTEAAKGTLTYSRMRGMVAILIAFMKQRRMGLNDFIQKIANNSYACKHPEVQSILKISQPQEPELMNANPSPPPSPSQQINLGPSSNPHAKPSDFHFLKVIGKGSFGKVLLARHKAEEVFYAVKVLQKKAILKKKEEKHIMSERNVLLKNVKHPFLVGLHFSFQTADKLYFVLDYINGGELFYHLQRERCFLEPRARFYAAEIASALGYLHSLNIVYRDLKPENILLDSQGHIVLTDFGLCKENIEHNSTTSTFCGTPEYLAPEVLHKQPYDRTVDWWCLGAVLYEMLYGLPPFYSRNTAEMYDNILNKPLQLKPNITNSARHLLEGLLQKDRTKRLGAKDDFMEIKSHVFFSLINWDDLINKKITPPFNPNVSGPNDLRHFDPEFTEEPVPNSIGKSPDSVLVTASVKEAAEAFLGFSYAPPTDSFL

As to `COCCc1nc(-c2ccc(NS(=O)(=O)c3cc(Cl)c(F)cc3F)cc2)nc2[nH]nc(N)c12` [Example 501], the results for the IC50 in assay [1] (setting [3]) and in assay [2] were 40 nM and 450 nM, respectively.
Consider `Cc1ccc(C#N)c(S(=O)(=O)Nc2ccc(-c3nc(C4CCC(O)C4)c4c(C)n[nH]c4n3)cc2)c1` (stereo not drawn) [Example 97], for which the IC50 worked out at 2 nM in assay [1] (setting [3]) and 1600 nM in assay [2].
For `Cc1ccc(C#N)c(S(=O)(=O)Nc2ccc(-c3nc(OC4CCN(CCF)CC4)c4c(C)n[nH]c4n3)cc2)c1` [Example 343] the same measures were 3.8 nM and 68 nM.
Regarding `O=S(=O)(Nc1ccc(-c2nc(Oc3cccnc3)c3cn[nH]c3n2)cc1)c1cc(Cl)ccc1F` [Example 26], the IC50 is below 1.2 nM in assay [1] (setting [3]) and 2600 nM in assay [2].
For the molecule `COc1ccc(Cl)c(S(=O)(=O)Nc2ccc(-c3nc(OCCC(N)=O)c4cn[nH]c4n3)cc2)c1` [Example 117], the IC50 in assay [1] (setting [3]) worked out at 2.3 nM; in assay [2], 6800 nM.
With `O=S(=O)(Nc1ccc(-c2nc(N3CC(O)C3)c3cn[nH]c3n2)cc1F)c1cc(Cl)ccc1Cl` [Example 437], the figures for the IC50 in assay [1] (setting [3]) and in assay [2] were 100 nM and 1800 nM, respectively.
For `O=S(=O)(Nc1ccc(-c2nc(C3CC3)c3cn[nH]c3n2)cc1F)c1cc(Cl)ccc1F` [Example 443] the same measures were 94 nM and 320 nM.
For `Nc1n[nH]c2nc(-c3ccc(NS(=O)(=O)c4cc(F)c(F)cc4F)cc3)ncc12` [Example 516], in that order: 300 nM and 640 nM.
As to `COCCc1nc(-c2ccc(NS(=O)(=O)c3cc(OC)ccc3Cl)cc2)nc2[nH]nc(N)c12` [Example 502], the values for the IC50 in assay [1] (setting [3]) and in assay [2] were 18 nM and 420 nM, respectively.
For `Cc1ccc(C#N)c(S(=O)(=O)Nc2ccc(-c3nc(C4CC4)c4cn[nH]c4n3)cc2)c1` [Example 145], the half-inhibitory concentration (IC50) in assay [1] (setting [3]) is 4.1 nM; in assay [2] it was 350 nM.
Take `COc1cc(-c2ncc3c(C)n[nH]c3n2)ccc1NS(=O)(=O)c1cc(Cl)ccc1Cl` [Example 534, 2,5-Dichloro-N-[2-methoxy-4-(3-methyl-1H-pyrazolo[3,4-d]pyrimidin-6-yl)-phenyl]-benzenesulfonamide]: the results for the IC50 in assay [1] (setting [4]) and in assay [2] (Homo sapiens) were below 1.5 nM and 350 nM, respectively.
On to `Cc1ccc(F)c(S(=O)(=O)Nc2ccc(-c3nc(OCCCC(N)=O)c4cn[nH]c4n3)cc2)c1` [Example 112], for which the IC50 was 3.3 nM in assay [1] (setting [3]) and 3900 nM in assay [2].
Turning to `Cc1n[nH]c2nc(-c3ccc(NS(=O)(=O)c4cc(F)ccc4F)cc3)nc(OCC3CNCCO3)c12` (stereo not drawn) [Example 292], the IC50 came to 14 nM in assay [1] (setting [3]) and 930 nM in assay [2].
For `COCCc1nc(-c2ccc(NS(=O)(=O)c3cc(C)ccc3F)cc2)nc2[nH]nc(N)c12` [Example 503], in that order: 29 nM and 630 nM.
On to `O=S(=O)(Nc1ccc(-c2nc(N3CCNCC3)c3cn[nH]c3n2)cc1)c1cc(Cl)ccc1Cl` [Example 17], for which the IC50 in assay [1] (setting [3]) is below 1.2 nM; in assay [2] it was 810 nM.
For `CC(C)COc1nc(-c2ccc(NS(=O)(=O)c3cc(Cl)sc3Cl)cc2)nc2[nH]nc(N)c12` [Example 330], in that order: 100 nM and 230 nM.
`Cc1n[nH]c2nc(-c3ccc(NS(=O)(=O)c4cc(Cl)ccc4Cl)cc3)nc(OCCCN)c12` [Example 210]: the IC50 in assay [1] (setting [3]) is below 1.5 nM; in assay [2] it was 98 nM.
Take `COc1ccc(F)c(S(=O)(=O)Nc2ccc(-c3nc(C4CC4)c4cn[nH]c4n3)cc2)c1` [Example 147]: the IC50 worked out at 1.5 nM in assay [1] (setting [3]) and 59 nM in assay [2].
Take `Cc1nc(-c2ccc(NS(=O)(=O)c3cc(F)c(F)c(F)c3)cc2)nc2[nH]nc(N)c12` [Example 165]: the results for the concentration for half-maximal inhibition (IC50) in assay [1] (setting [3]) and in assay [2] were 110 nM and 970 nM, respectively.
Regarding `O=S(=O)(Nc1ccc(-c2nc(OCC3CNCCO3)c3cn[nH]c3n2)cc1)c1cc(F)ccc1F` (stereo not drawn) [Example 311], the IC50 was 240 nM in assay [1] (setting [3]) and 92 nM in assay [2].
Consider `N#Cc1c(Cl)cccc1S(=O)(=O)Nc1ccc(-c2ncc3c(N)n[nH]c3n2)cc1` [Example 456], for which the results for the half-maximal inhibitory concentration (IC50) in assay [1] (setting [3]) and in assay [2] were 6.2 nM and 8900 nM, respectively.
In the case of `COc1ccc(C#N)c(S(=O)(=O)Nc2ccc(-c3nc(OC4CCC(O)CC4)c4cn[nH]c4n3)cc2)c1` (stereo not drawn) [Example 134], the IC50 was below 1.5 nM in assay [1] (setting [3]) and 640 nM in assay [2].
Turning to `O=S(=O)(Nc1ccc(-c2nc(N[C@H]3CC[C@@H](O)CC3)c3cn[nH]c3n2)cc1)c1cc(Cl)ccc1Cl` [Example 78], the results for the IC50 in assay [1] (setting [3]) and in assay [2] were 3.6 nM and 2600 nM, respectively.
`COc1ccc(F)c(S(=O)(=O)Nc2ccc(-c3nc(OC4CNC4)c4cn[nH]c4n3)cc2)c1` [Example 192]: the IC50 was 2.8 nM in assay [1] (setting [3]) and 140 nM in assay [2].
Turning to `O=S(=O)(Nc1ccc(-c2nc(Oc3cccnc3)c3cn[nH]c3n2)cc1)c1cc(Cl)ccc1Cl` [Example 27], the IC50 in assay [1] (setting [3]) is below 1.2 nM; in assay [2], 1900 nM.
For `COc1nc(-c2ccc(NS(=O)(=O)c3cc(Cl)ccc3Cl)cc2)nc2[nH]ncc12` [Example 139], the IC50 in assay [1] (setting [3]) is 82 nM; in assay [2] it was 5500 nM.
Turning to `COc1ccc(Cl)c(S(=O)(=O)Nc2ccc(-c3nc(OC4CCC(O)CC4)c4c(C)n[nH]c4n3)cc2)c1` (stereo not drawn) [Example 102], the IC50 is 1.7 nM in assay [1] (setting [3]) and 380 nM in assay [2].
Take `Cc1ccc(F)c(S(=O)(=O)Nc2ccc(-c3nc(OC4CCC(O)CC4)c4c(C)n[nH]c4n3)cc2)c1` (stereo not drawn) [Example 101]: the IC50 in assay [1] (setting [3]) is 2.1 nM; in assay [2], 430 nM.
For `Cc1nc(-c2ccc(NS(=O)(=O)c3cc(Cl)ccc3F)cc2)nc2[nH]nc(N)c12` [Example 466] the same measures were below 1.5 nM and 260 nM.
Consider `Cc1n[nH]c2nc(-c3ccc(NS(=O)(=O)c4cc(Cl)ccc4Cl)cc3)ncc12` [Example 1, 2,5-Dichloro-N-[4-(3-methyl-1H-pyrazolo[3,4-d]pyrimidin-6-yl)-phenyl]-benzenesulfonamide], for which the IC50 in assay [1] (setting [4]) is below 1.2 nM; in assay [2] (Homo sapiens), 830 nM.
Take `O=S(=O)(Nc1ccc(-c2nc(OC3CCC(O)C3)c3cn[nH]c3n2)cc1)c1cc(Cl)ccc1Cl` (stereo not drawn) [Example 60]: the results for the IC50 in assay [1] (setting [3]) and in assay [2] were 4 nM and 480 nM, respectively.
For `Cc1ccc(F)c(S(=O)(=O)Nc2ccc(-c3nc(OC4CCC(O)CC4)c4cn[nH]c4n3)cc2)c1` (stereo not drawn) [Example 92], the figures for the IC50 in assay [1] (setting [3]) and in assay [2] were 2.1 nM and 180 nM, respectively.
Consider `COc1ccc(F)c(S(=O)(=O)Nc2ccc(-c3nc(OCC4CNCCO4)c4c(C)n[nH]c4n3)cc2)c1` (stereo not drawn) [Example 295], for which the IC50 was found to be 2.6 nM in assay [1] (setting [3]) and 25 nM in assay [2].
Take `Cc1n[nH]c2nc(-c3ccc(NS(=O)(=O)c4ccccc4F)cc3)nc(OC3CCCNC3)c12` (stereo not drawn) [Example 323]: the concentration for half-maximal inhibition (IC50) amounted to 12 nM in assay [1] (setting [3]) and 100 nM in assay [2].
In the case of `Cc1ccc(C#N)c(S(=O)(=O)Nc2ccc(-c3nc(OCC4CNC(=O)C4)c4cn[nH]c4n3)cc2)c1` (stereo not drawn) [Example 125], the IC50 turned out to be 2 nM in assay [1] (setting [3]) and 12000 nM in assay [2].
For `COc1ccc(Cl)c(S(=O)(=O)Nc2ccc(-c3nc(OC4CCC(O)CC4)c4cn[nH]c4n3)cc2)c1` (stereo not drawn) [Example 90] the same measures were 2.2 nM and 200 nM.
Take `COc1ccc(F)c(S(=O)(=O)Nc2ccc(-c3nc(OCC4CNCCO4)c4cn[nH]c4n3)cc2)c1` (stereo not drawn) [Example 309]: the IC50 amounted to 2.8 nM in assay [1] (setting [3]) and 160 nM in assay [2].
`O=S(=O)(Nc1ccc(-c2nc(OC3CNC3)c3cn[nH]c3n2)cc1F)c1cc(Cl)ccc1F` [Example 442]: the IC50 in assay [1] (setting [3]) was found to be 29 nM; in assay [2] it was 1300 nM.
For `NCCCOc1nc(-c2ccc(NS(=O)(=O)c3cc(F)ccc3F)cc2)nc2[nH]ncc12` [Example 199] the same measures were 26 nM and 640 nM.
On to `Cc1ccc(F)c(S(=O)(=O)Nc2ccc(-c3nc(OCC4O[C@H](O)[C@H](O)[C@@H](O)[C@@H]4O)c4cn[nH]c4n3)cc2)c1` (stereo partly drawn) [Example 123], for which the half-maximal inhibitory concentration (IC50) in assay [1] (setting [3]) was found to be 9.9 nM; in assay [2], 30000 nM.
For `Cc1ccc(C#N)c(S(=O)(=O)Nc2ccc(-c3nc(OCC(F)(F)F)c4c(N)n[nH]c4n3)cc2)c1` [Example 193], in that order: 2 nM and 160 nM.
Take `COc1ccc(Cl)c(S(=O)(=O)Nc2ccc(-c3nc(O[C@@H]4CCC(O)C4)c4cn[nH]c4n3)cc2)c1` (stereo partly drawn) [Example 91]: the figures for the concentration for half-maximal inhibition (IC50) in assay [1] (setting [3]) and in assay [2] were below 1.5 nM and 180 nM, respectively.
For `COc1ccc(F)c(S(=O)(=O)Nc2ccc(-c3nc(OC4CCC(O)CC4)c4cn[nH]c4n3)cc2)c1` (stereo not drawn) [Example 133], the values for the IC50 in assay [1] (setting [3]) and in assay [2] were below 1.5 nM and 260 nM, respectively.
Turning to `CC(C)Oc1nc(-c2ccc(NS(=O)(=O)c3cc(Cl)ccc3Cl)cc2)nc2[nH]nc(N)c12` [Example 335], the IC50 in assay [1] (setting [3]) was 8.3 nM; in assay [2], 350 nM.
As to `Cc1nc(-c2ccc(NS(=O)(=O)c3cccc(Cl)c3C#N)cc2)nc2[nH]nc(N)c12` [Example 470], the IC50 in assay [1] (setting [3]) came out at 11 nM; in assay [2] it was 2000 nM.
